Our source for the melting point values is a melting point compilation (Tetko et al.).

Molecules are shown by their SMILES.

In the case of `O=P1(NC2CCCCC2)Oc2ccccc2-c2ccccc2O1`, the melting point came to 160 °C.
Consider `c1ccc([C@@H]2COC(c3cccc(C4=N[C@H](c5ccccc5)CO4)n3)=N2)cc1`, for which the melting point is 171 to 175 °C.
As for `CC(=O)Nc1cc([N+](=O)[O-])c(/C=C/c2ccccc2)c([N+](=O)[O-])c1/C=C/c1ccccc1`, the melting point stood at 171 °C.
Under `Cc1ccc(C=O)c2ccccc12` stands 31 to 33 °C; under `NNC(=O)c1ccc(F)cc1F`, 141 to 142 °C.
As to `FC(Cl)C(F)(F)C(F)(F)Cl` (stereo not given), the melting point was -97 °C.
The value for `O=Cc1cc([N+](=O)[O-])ccc1Sc1ccccn1` was 109 to 110 °C; that for `CC(=CC(=O)O)C1CCCCC1` was 85.5 °C.
The molecule `CCc1ccc([N+](=O)[O-])cc1` registered a melting point of -12 °C.
Take `OC(c1ccccc1)c1ccc(C(F)(F)F)cc1` (stereo not given): the melting point was 60 °C.
The value for `CCOC(=O)CCC(=O)CC1(O)C2(Cl)C3(Cl)C4(Cl)C(Cl)(Cl)C5(Cl)C3(Cl)C1(Cl)C5(Cl)C42Cl` (stereo not given) was 91 °C; that for `CCOC(=O)N1CCN(C(=O)OCC)CC1` was 47 °C; that for `CCC1CN2CCc3cc(OC)c(OC)cc3C2CC1CC1NCCc2cc(O)c(OC)cc21` (stereo not given) was 116 °C.
Take `NC1CCC1`: the melting point was -4 °C.
Under `O=C(O)c1cn(C2CCCCC2)c2ccccc2c1=O` stands 237 to 238 °C; under `O=C1C(Br)=C(c2ccccc2)c2ccccc21`, 111 °C; under `ClC1CC2CCC1C2` (stereo not given), -5 °C.
In turn, `O=C1C=CC(=O)c2c(Cl)cccc21` showed a melting point of 163 °C.
The value for `CC(C)CNC(=O)C(C(F)(F)F)C(F)(F)F` was 111 °C.
The value for `CC(=O)c1cc2c(cc1N)OCO2` was 168 to 171 °C; that for `COc1ccc2nnc(-c3ccc(C(F)(F)F)cc3)n2n1` was 142 °C; that for `OC(C1=CC(=C(c2ccccn2)c2ccccn2)C=C1)(c1ccccn1)c1ccccn1` was 146 °C.
Molecule `CSCCC(N)C(=O)O` (stereo not given) yielded a melting point of 281 °C.
The value for `COC(=O)c1[nH]c2ccccc2c1C(=O)OC` was 112 to 115 °C; that for `c1ccc(C2=NNCC2)cc1` was 45.8 °C; that for `Clc1nnnn1-c1ccccc1` was 123 °C.
The molecule `N#C/C(=N\Nc1ccc2ccccc2c1)c1nc(-c2ccc(Cl)cc2)cs1` displayed a melting point of 218 °C.
Under `NC(=O)CC[C@H](NC(=O)C(F)(F)F)C(=O)O` stands 146 to 150 °C; under `C#CC1(O)CCC2(C)C(CCC3C2CCC2(C)C3CCC23OCCO3)C1` (stereo not given), 203 to 209 °C.
Under `N#C/C(=N\Nc1ccc(F)cc1)c1nc2ccccc2c(=O)[nH]1` stands 215 °C.
Turning to `COc1ccc(N/N=C(\C#N)c2nc(C)c(/N=N/c3ccccc3)s2)cc1`, the melting point was determined as 178 °C.
`COc1ccccc1P(CCP(c1ccccc1)c1ccccc1OC)c1ccccc1` (stereo not given) gave a melting point of 102 to 104 °C.
On to `O=C(CCl)OC(=O)CCl`, for which the melting point is 57.5 °C.
Molecule `CCOC(=O)c1c[nH]c2c(c1=O)CNN2C` returned a melting point of 138 to 140 °C.
`Nc1cc(Cl)c(Cl)cc1[N+](=O)[O-]` displayed a melting point of 181 °C.
In turn, `Cc1nc(-c2ccc(N=C=O)cc2)cs1` gave a melting point of 80 to 81 °C.
With `CC12CCC3C(CCC4CC5SC5CC43C)C1CCC2O` (stereo not given), the melting point is 127 °C.
The value for `O=[N+]([O-])c1cccc(Oc2ccccn2)c1` was 93 to 95 °C; that for `CNC(=O)c1cccnc1` was 104 °C; that for `O=c1[nH]c2ccccc2n1CCCN1CCN(C(c2ccccc2)c2ccccc2)CC1` was 154 °C.
Molecule `COc1ccc2c(c1)OC1c3ccc(O)cc3OCC21` (stereo not given) showed a melting point of 128 °C.
The value for `CC(=O)Nc1ccc(C#Cc2ccc(NC(C)=O)cc2)cc1` was 281 °C; that for `O=C(CBr)c1ccc(-c2ccccc2)s1` was 115 to 117 °C; that for `COC(=O)C1=C(C)NC(=O)NC1c1cccc(OC)c1O` (stereo not given) was 208 °C.
The value for `O=C(CBr)c1coc2ccccc12` was 136 to 137 °C; that for `C=C(C)C(=O)CC` was -69.5 °C; that for `COc1ccc(CC(N)=O)cc1` was 186 °C.
The value for `CCCC(C)CC(C)O` (stereo not given) was -102 °C; that for `C=C1C(=CC=C2CCCC3(C)C2CCC3C(C)CCCC(C)(C)O)CC(O)CC1O` (stereo not given) was 115 °C.
Molecule `COC(=O)c1ccc(/C=C/c2ccc(C(=O)OC)cc2)cc1` had a melting point of 235 °C.
The value for `C=CC=CC(=O)O` was 79 °C; that for `Cc1ccc(S(C)(=O)=O)cc1[N+](=O)[O-]` was 121 °C; that for `Nc1cccnc1Br` was 77 °C.
Molecule `Cc1nc(-c2ccc(CO)s2)cs1` displayed a melting point of 67 to 69 °C.
Under `O=C(Nc1ccccc1)OC1CCCCC(OC(=O)Nc2ccccc2)C1` (stereo not given) stands 170 °C; under `CCCCCCSc1nnc(S)s1`, 75 °C.
Molecule `CC(C)(C)C(CO)CO` had a melting point of 55 °C.
The value for `O=C(Nc1ccc(N=Nc2ccc(N=Nc3ccc(NC(=O)c4ccccc4)cc3)cc2)cc1)c1ccccc1` was 336 °C; that for `O=C1c2ccccc2C(=O)N1CCCO` was 78 °C.
As for `CCCCCCCCCCCCCCCCCCSSCCCCCCCCCCCCCCCCCC`, the melting point was found to be 62 °C.
As for `Cc1cc2c(C)ccc(C)c2cc1C`, the melting point was found to be 64 °C.
Consider `Fc1ccc(-c2ccno2)cc1`, for which the melting point came to 55 °C.
The value for `O=Cc1ccccc1-c1ccccc1C(=O)O` was 128 to 133 °C; that for `Cc1c(C)c2c(c3c1CC3)CC2` was 105 to 116 °C; that for `COc1cccc(OCc2ccccc2)c1C#N` was 70 to 72 °C.
In the case of `Cc1ccnc(O)c1[N+](=O)[O-]`, the melting point fell in the range of 228 to 232 °C.
Under `CCOc1cc(NC(=O)c2ccccc2)c(OCC)cc1N` stands 98 to 100 °C; under `O=C(O)c1cccc(C(=O)O)n1`, 248 to 250 °C.
`Cc1nn(-c2ccccc2)nc1C(=O)NO` had a melting point of 160 °C.
The value for `Cc1nnsc1-c1nnc(S)n1C1CC1` was 212 to 213 °C; that for `NC(CC(F)(F)F)C(=O)O` (stereo not given) was 256 to 258 °C; that for `N=c1sc(C(=O)c2cccs2)nn1-c1ccncc1` was 131 °C.
Under `Cn1cnc(C(=O)Oc2c(F)c(F)c(F)c(F)c2F)c1` stands 131 to 132 °C.
For `Cc1ccc(C(=O)OC(C(=O)O)C(OC(=O)c2ccc(C)cc2)C(=O)O)cc1` (single isomer, unassigned; (+)), the melting point was 165 to 167 °C.
The value for `Cc1cccc(CCC(=O)O)c1` was 41 to 44 °C; that for `NC(=S)c1cccc(F)c1` was 110 °C.
Molecule `O=c1ccc2cc(Cl)ccc2o1` registered a melting point of 165 °C.
The molecule `N#Cc1ccc(-n2cccc2)cc1` displayed a melting point of 103 to 105 °C.
`Cc1ccc(N)cc1NS(C)(=O)=O` showed a melting point of 170 to 172 °C.
The value for `ClCc1cccc2ccccc12` was 32 °C; that for `O=C(O)c1ccc(N2C(=O)C3C(C(=O)c4ccc(Cl)cc4)=NN(c4ccccc4)C3C2=O)cc1` (stereo not given) was 285 °C.
The molecule `O=C(C1=NOC2C(=O)N(c3ccccc3[N+](=O)[O-])C(=O)C12)c1ccc2ccccc2c1` (stereo not given) yielded a melting point of 176 °C.
Regarding `CC(Br)C(C)Br` (stereo not given), the melting point was -24 °C.
For `O=C1c2cccc(O)c2C(=O)c2cccc(O)c21`, the melting point was determined as 280 °C.
The value for `COC(=O)c1sccc1OC` was 62 °C; that for `COc1cc(C)c(C=CC(C)=CC=CC(C)=CC(=O)O)c(C)c1C` was 228 °C.
The value for `CC(=CNNc1nc(C)cc(C)n1)c1ccncc1` was 214 to 216 °C; that for `O=Cc1cc(Br)cs1` was 46 to 47 °C; that for `COc1ccc(N=C(S)SC)cc1` was 111 to 113 °C.
The value for `CC12CC3CC(Br)(C1)CC(C(=O)O)(C3)C2` (stereo not given) was 118 to 120 °C; that for `Cc1cnccc1N` was 108 °C; that for `CN(C)c1ccc(CCC2CCc3ccccc3N2)cc1` (stereo not given) was 68 to 68.5 °C.
With `CC1CCC(C)(C(=O)CN2C(=O)c3ccccc3C2=O)C1(C)C` (stereo not given), the melting point is 99 °C.
Take `CCCCCCCCCCCCCCCCCCOCCOCCOCCOCCOCCOCCOCCOCCOCCOCCOCCOCCOCCOCCOCCOCCOCCOCCOCCOCCO`: the melting point lay in the range of 44 to 46 °C.
Consider `CCOC(=O)C(=O)CC(=O)c1cccs1`, for which the melting point lay within 38 to 40 °C.
Molecule `Cc1nccn1-c1ccc(C#N)cc1` came in with a melting point of 138 to 141 °C.
Under `OCc1csc(-c2ccc(C(F)(F)F)cc2)n1` stands 107 °C; under `C1CCN(SSN2CCCCC2)CC1`, 64.2 °C; under `Cc1cc(C)c(O)c(C(C)(C)C)c1`, 22.3 °C.
The value for `COC(=O)c1ccccc1C(=O)O` was 83 °C; that for `CCCCOC(=O)c1ccccc1` was -22.4 °C; that for `CC1(C)C2CCC13CS(=O)(=O)N=C3C2` (stereo not given) was 227 °C.
The value for `O=S(=O)(Cl)c1ccc(Br)cc1Cl` was 79 °C.
Take `O=C(O)c1ccc(-n2cccn2)cc1`: the melting point is 269 to 270 °C.
In turn, `Cc1c(Cl)ncnc1Cl` displayed a melting point of 58 °C.
Consider `CCOP(=S)(OCC)Oc1ccc2c3c(c(=O)oc2c1)CCCC3`, for which the melting point came out at 88.2 °C.
In turn, `CN(C)CCOc1ccc(C(=C(CCCl)c2ccccc2)c2ccccc2)cc1` yielded a melting point of 108 °C.
Under `Cc1ccc(F)c(CO)c1Cl` stands 69 °C; under `N#CCc1c(C#N)c(N)nc(Cl)c1C#N`, 257 to 259 °C.
For `O=C(O)CCn1cncn1`, the melting point was in the range of 177 to 179 °C.
